In publication PMC5931576, “Allosteric modulation of the farnesoid X receptor by a small molecule” (Scientific Reports, 2018):

How the values were obtained:
TGR5 = test system: T1, TGR5; test: TGR5 assay (Eurofins); format: cell-based; conditions: 1 and 10 µM
T1 construct: Eurofins (Brussels, Belgium)

[1] = Metabolism assay (liver microsomes); format: in vitro ADME, Sprague−Dawley rats; conditions: rat liver microsomes, 10 μM
Method: In vitro biological evaluation […]
MgCl2). After 5 min, the reaction was started by the addition of 13 μL of microsome mix from the liver of Sprague−Dawley rats (Invitrogen; 20 mg protein/mL in 0.1 M phosphate buffer) in a shaking water bath at 37 °C.
The reaction was stopped by addition of 250 μL of ice-cold methanol at 0, 15, 30 and 60 min. The samples were diluted with 250 μL of DMSO and centrifuged at 10000 g for 5 min at 4 °C. The supernatants were analyzed and test compound was quantified by HPLC: mobile phase: MeOH 83%/H2O 17%/formic acid 0.1%; flow-rate:
1 mL/min; stationary phase: MultoHigh Phenyl phase, 5 μm, 250 × 4, precolumn, phenyl, 5 μm, 20 × 4; detection wavelength: 330 and 254 nm; injection volume: 50 μL. Control samples were performed to check the stability of 4 or 16 in the reaction mixture: first control was without NADPH, which is needed for the enzymatic activity of the microsomes, second control was with inactivated microsomes (incubated for 20 min at 90 °C), third control was […]
quantified by an external calibration curve, where data are expressed as means ± SEM of single determinations […]
obtained in three independent experiments. […]
as mean percent of remaining compound ± SEM; n=3): 4: 0 min: 100 ± 0%, 15 min: 86 ± 3%, 30 min: 74 ± 1%,

human FXR = target: T2, human FXR (Homo sapiens, UniProt Q96RI1); test: Full-length FXR transactivation (reporter gene) assay in HeLa cells; format: cell-based
T2 construct: expressed in transfected cells; host or cells: HeLa
T2 sequence (Q96RI1 1-486): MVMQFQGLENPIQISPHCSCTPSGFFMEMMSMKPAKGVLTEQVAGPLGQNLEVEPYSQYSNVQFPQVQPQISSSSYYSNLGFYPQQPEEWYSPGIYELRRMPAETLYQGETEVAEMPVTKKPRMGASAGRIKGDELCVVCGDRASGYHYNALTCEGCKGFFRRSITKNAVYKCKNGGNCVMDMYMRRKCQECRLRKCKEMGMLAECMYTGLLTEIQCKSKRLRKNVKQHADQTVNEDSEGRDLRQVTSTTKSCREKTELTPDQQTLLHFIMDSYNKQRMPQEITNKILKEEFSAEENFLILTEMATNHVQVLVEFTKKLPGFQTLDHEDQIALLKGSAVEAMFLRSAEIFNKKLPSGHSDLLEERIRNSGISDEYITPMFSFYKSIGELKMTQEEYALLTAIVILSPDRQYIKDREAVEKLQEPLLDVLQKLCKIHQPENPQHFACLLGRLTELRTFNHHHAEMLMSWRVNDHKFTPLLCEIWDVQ
T2 sequence (P19793 1-462 partner): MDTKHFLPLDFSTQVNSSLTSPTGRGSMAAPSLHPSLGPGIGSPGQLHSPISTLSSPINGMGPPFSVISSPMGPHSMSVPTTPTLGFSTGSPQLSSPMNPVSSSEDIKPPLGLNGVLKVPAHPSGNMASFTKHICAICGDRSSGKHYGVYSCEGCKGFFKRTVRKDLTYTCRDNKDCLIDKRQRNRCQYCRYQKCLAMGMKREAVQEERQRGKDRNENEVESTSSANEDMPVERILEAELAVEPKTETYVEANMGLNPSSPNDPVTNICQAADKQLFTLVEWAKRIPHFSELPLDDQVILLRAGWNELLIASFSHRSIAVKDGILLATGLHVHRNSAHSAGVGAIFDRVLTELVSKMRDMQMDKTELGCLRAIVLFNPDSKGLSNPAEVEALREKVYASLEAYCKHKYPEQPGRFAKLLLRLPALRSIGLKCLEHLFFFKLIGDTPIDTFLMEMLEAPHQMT

Question: Which “TGR5 modulation (agonistic or antagonistic activity)” value (TGR5) does the source give for `CS(=O)(=O)O.CS(=O)(=O)O.CS(=O)(=O)O.CS(=O)(=O)O.Cc1ccc(NC(=O)c2ccc(Cl)cc2)cc1Nc1nccc(-c2cccnc2)n1.Cc1ccc(NC(=O)c2ccc(Cl)cc2)cc1Nc1nccc(-c2cccnc2)n1.O.O.O` [compound 16, 4-Chloro-N-(4-methyl-3-(4-(pyridin-3-yl)pyrimidin-2-ylamino)phenyl)benzamide dimesylate-sesquihydrate] here?
Answer: does not modulate

Question: And the “mean percent of remaining compound” value ([1]; 0 min)?
Answer: 100 ± 0%

Question: What about the “mean percent of remaining compound” value ([1]; 15 min) of the same molecule?
Answer: 92 ± 1%

Question: And the “mean percent of remaining compound” value ([1]; 30 min)?
Answer: 88 ± 1%

Question: And the “mean percent of remaining compound” value ([1]; 60 min)?
Answer: 86 ± 1%

Question: And the “Effect on transactivation efficacy of FXR agonists 1–3” value (human FXR; 16 at 10 µM)?
Answer: significantly enhances

Question: What about the Emax (human FXR; HeLa, read-out: hFXR: max. rel. act.) of the same molecule?
Answer: 8.4%

Question: What about the EC50 (human FXR; full-length reporter gene assay, HeLa cells, mean ± SEM, n ≥ 3, read-out: hFXR: EC50) of the same molecule?
Answer: 1.9 ± 0.6 nM

Question: And the “Effect on EC50-value of 1” value (human FXR; in presence of 0.1 µM 16)?
Answer: not affected

Question: What about the “Increase of maximum relative activation of 1” value (human FXR; in presence of 0.1 µM 16) of the same molecule?
Answer: about 50%
